Counter-ions that a name gives are not always drawn.
Biological target: T1, human hNET (Homo sapiens, UniProt P23975)
T1 construct: expressed in transfected cells
Test: Norepinephrine (NE) uptake assay in MDCK-Net6 cells
Assay type: cell-based
Conditions: 1 μM test compound, [3H]NE uptake
Procedure: MDCK-Net6 cells, stably transfected with human hNET (Pacholczyk, T., R. D. Blakely, and S. G. Amara, Nature, 1991, 350(6316): p. 350-4) were cultured in growth medium containing high glucose DMEM (Gibco, Cat. No. 11995), 10% FBS (dialyzed, heat-inactivated, US Bio-Technologies, Lot FBD1129HI) and 500 μg/ml G418 (Gibco, Cat. No. 10131). Cells were plated at 300,000/T75 flask and cells were split twice weekly. The JAR cell line (human placental choriocarcinoma) was purchased from ATCC (Cat. No. HTB-144). The cells were cultured in growth medium containing RPMI 1640 (Gibco, Cat. No. 72400), 10% FBS (Irvine, Cat. No. 3000), 1% sodium pyruvate (Gibco, Cat. No. 1136) and 0.25% glucose. Cells were plated at 250,000 cells/T75 flask and split twice weekly. For all assays, cells were plated in Wallac 96-well sterile plates (PerkinElmer, Cat. No. 3983498).
On day 1, cells were plated at 3,000 cells/well in growth medium and maintained in a cell incubator (37° C., 5% CO2). On day 2, growth medium was replaced with 200 μl of assay buffer (25 mM HEPES; 120 mM NaCl; 5 mM KCl; 2.5 mM CaCl2; 1.2 mM MgSO4; 2 mg/ml glucose (pH 7.4, 37° C.)) containing 0.2 mg/ml ascorbic acid and 10 μM pargyline. Plates containing cells with 200 μl of assay buffer were equilibrated for 10 minutes at 37° C. prior to addition of compounds. A stock solution of desipramine was prepared in DMSO (10 mM) and delivered to triplicate wells containing cells for a final test concentration of 1 μM. Data from these wells were used to define non-specific NE uptake (minimum NE uptake). Test compounds were prepared in DMSO (10 mM) and diluted in assay buffer according to test range (1 to 10,000 nM). Twenty-five microliters of assay buffer (maximum NE uptake) or test compound were added directly to triplicate wells containing cells in 200 μl of assay buffer. The cells in assay buffer with test compounds were incubated for 20 minutes at 37° C. To initiate the NE uptake, [^3H]NE diluted in assay buffer (120 nM final assay concentration) was delivered in 25 μl aliquots to each well and the plates were incubated for 5 minutes (37° C.). The reaction was terminated by decanting the supernatant from the plate. The plates containing cells were washed twice with 200 μl assay buffer (37° C.) to remove free radioligand. The plates were then inverted, left to dry for 2 minutes, then reinverted and air-dried for an additional 10 minutes. The cells were lysed in 25 μl of 0.25 N NaOH solution (4° C.), placed on a shake table and vigorously shaken for 5 minutes. After cell lysis, 75 μl of scintillation cocktail was added to each well and the plates were sealed with film tape. The plates were returned to the shake table and vigorously shaken for a minimum of 10 minutes to ensure adequate partitioning of organic and aqueous solutions. The plates were counted in a Wallac Microbeta counter (PerkinElmer) to collect the raw cpm data.
For each experiment, a data stream of cpm values collected from the Wallac Microbeta counter was downloaded to a Microsoft Excel statistical application program. Calculations of EC50 values were made using the transformed-both-sides logistic dose response program written by Wyeth Biometrics Department. The statistical program uses mean cpm values from wells representing maximum binding or uptake (assay buffer) and mean cpm values from wells representing minimum binding or uptake ((1 μM desipramine (hNET) or 1 μM paroxetine (hSERT)). Estimation of the EC50 value was completed on a log scale and the line was fit between the maximum and minimum binding or uptake values. All graphic data representation was generated by normalizing each data point to a mean percent based on the maximum and minimum binding or uptake values. The EC50 values reported from multiple experiments were calculated by pooling the raw data from each experiment and analyzing the pooled data as one experiment.

T1 sequence (P23975 whole entry): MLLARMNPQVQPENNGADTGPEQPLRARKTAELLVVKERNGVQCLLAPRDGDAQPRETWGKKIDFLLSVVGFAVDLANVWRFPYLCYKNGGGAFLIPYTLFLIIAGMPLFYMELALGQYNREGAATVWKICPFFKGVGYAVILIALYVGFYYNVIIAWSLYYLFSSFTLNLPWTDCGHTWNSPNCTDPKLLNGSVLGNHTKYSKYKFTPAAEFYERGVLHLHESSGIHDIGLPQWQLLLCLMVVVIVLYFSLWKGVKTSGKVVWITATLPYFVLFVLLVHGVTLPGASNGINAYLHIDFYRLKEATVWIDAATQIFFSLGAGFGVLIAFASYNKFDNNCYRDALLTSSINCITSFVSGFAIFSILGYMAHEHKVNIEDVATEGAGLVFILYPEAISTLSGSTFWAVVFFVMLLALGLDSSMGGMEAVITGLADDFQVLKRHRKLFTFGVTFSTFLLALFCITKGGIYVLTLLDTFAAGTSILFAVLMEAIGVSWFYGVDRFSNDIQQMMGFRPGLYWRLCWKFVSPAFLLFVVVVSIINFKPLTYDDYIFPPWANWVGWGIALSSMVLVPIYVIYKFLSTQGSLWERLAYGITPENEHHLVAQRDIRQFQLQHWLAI

SMILES	inhibition at 1 µM [%]
CN1CCC(O)(C(CN2CCNCC2)c2ccc(Cl)c(Cl)c2)CC1 (centres unmarked) [Example 37, 4-[1-(3,4-dichlorophenyl)-2-piperazin-1-ylethyl]-1-methylpiperidin-4-ol trihydrochloride]	57
CCC(O)(CC)C(CN1CCNCC1)c1cccc(Br)c1 (centres unmarked) [Example 50, 2-(3-bromophenyl)-3-ethyl-1-piperazin-1-ylpentan-3-ol dihydrochloride]	89
CCCC(O)(CCC)C(CN1CCNCC1)c1cccc(Cl)c1 (centres unmarked) [Example 51, 4-[1-(3-chlorophenyl)-2-piperazin-1-ylethyl]heptan-4-ol dihydrochloride]	44
CCC(O)(CC)C(CN1CCNCC1)c1cccc(Cl)c1 (centres unmarked) [Example 52, 2-(3-chlorophenyl)-3-ethyl-1-piperazin-1-ylpentan-3-ol dihydrochloride]	37
CN1CCC(O)(C(CN2CCNCC2)c2cccc(Br)c2)CC1 (centres unmarked) [Example 58, 4-[1-(3-bromophenyl)-2-piperazin-1-ylethyl]-1-methylpiperidin-4-ol dihydrochloride]	35
CCC(O)(CC)C(CN1CCNCC1)c1ccc(OC)c(Br)c1 (centres unmarked) [Example 65, 2-(3-bromo-4-methoxyphenyl)-3-ethyl-1-piperazin-1-ylpentan-3-ol dihydrochloride]	12
CCC(O)(CC)C(CN1CCN(C)CC1)c1ccc(OC)c(Br)c1 (centres unmarked) [Example 66, 2-(3-bromo-4-methoxyphenyl)-3-ethyl-1-(4-methylpiperazin-1-yl)pentan-3-ol dihydrochloride]	26
OC1(C(CN2CCNCC2)c2cccc(Cl)c2)CCCC2CCCCC21 (centres unmarked) [Example 72, 1-[1-(3-chlorophenyl)-2-piperazin-1-ylethyl]decahydronaphthalen-1-ol dihydrochloride]	25
COc1ccc(C(CN2CCN(C)CC2)C2(O)CCC(C(C)(C)C)CC2)cc1Br (centres unmarked) [Example 73, 1-[1-(3-bromo-4-methoxyphenyl)-2-(4-methylpiperazin-1-yl)ethyl]-4-tert-butylcyclohexano dihydrochloride]	25
OC1(C(CN2CCNCC2)c2cccc(Cl)c2)CCC2CCCCC2C1 (centres unmarked) [Example 74, 2-[1-(3-chlorophenyl)-2-piperazin-1-ylethyl]decahydronaphthalen-2-ol dihydrochloride]	24
OC1(C(CN2CCNCC2)c2cccc(Cl)c2)CCOCC1 (centres unmarked) [Example 77, 4-[1-(3-chlorophenyl)-2-piperazin-1-ylethyl]tetrahydro-2H-pyran-4-ol dihydrochloride]	31
CN1CCN(CC(c2cccc(Cl)c2)C2(O)CCOCC2)CC1 (centres unmarked) [Example 78, 4-[1-(3-chlorophenyl)-2-(4-methylpiperazin-1-yl)ethyl]tetrahydro-2H-pyran-4-ol dihydrochloride]	22
CN1CCN(CC(c2cccc(Br)c2)C2(O)CCC(C(C)(C)C)CC2)CC1 (centres unmarked) [Example 79, 1-[1-(3-bromophenyl)-2-(4-methylpiperazin-1-yl)ethyl]4-tert-butylcyclohexanol dihydrochloride]	20
CCCC(O)(CCC)C(CN1CCNCC1)c1cccc(Br)c1 (centres unmarked) [Example 81, 4-[1-(3-bromophenyl)-2-piperazin-1-ylethyl]heptan-4-ol dihydrochloride]	18
CCCC(O)(CCC)C(CN1CCN(C)CC1)c1cccc(Br)c1 (centres unmarked) [Example 82, 4-[1-(3-bromophenyl)-2-(4-methylpiperazin-1-yl)ethyl]heptan-4-ol dihydrochloride]	19
COc1ccc(C(CN2CCNCC2)C2(O)CCC(C(C)(C)C)CC2)cc1Br (centres unmarked) [Example 84, 1-[1-(3-bromo-4-methoxyphenyl)-2-piperazin-1-ylethyl]4-tert-butylcyclohexanol dihydrochloride]	18
CN1CCN(CC(c2cccc(Cl)c2)C(O)(C2CC2)C2CC2)CC1 (centres unmarked) [Example 86, 2-(3-chlorophenyl)-1,1-dicyclopropyl-3-(4-methylpiperazin-1-yl)propan-1-ol dihydrochloride]	16
CN1CCN(CC(c2cccc(Br)c2)C2(O)CC(C)(C)CC(C)(C)C2)CC1 (centres unmarked) [Example 88, 1-[1-(3-bromophenyl)-2-(4-methylpiperazin-1-yl)ethyl]-3,3,5,5-tetramethylcyclohexanol dihydrochloride]	16
CC(C)(C)C1CCC(O)(C(CN2CCNCC2)c2cccc(Cl)c2)CC1 (centres unmarked) [Example 93, 4-tert-butyl-1-[1-(3-chlorophenyl)-2-piperazin-1-ylethyl]cyclohexanol dihydrochloride]	12
Clc1cccc(C(CN2CCNCC2)C2CCCC2)c1 (centres unmarked) [Example 226, 1-[2-(3-chlorophenyl)-2-cyclopentylethyl]piperazine dihydrochloride]	53
CN1CCN(CC(c2cccc(Cl)c2)C2CCCC2)CC1 (centres unmarked) [Example 227, 1-[2-(3-chlorophenyl)-2-cyclopentylethyl]-4-methylpiperazine dihydrochloride]	48.2
Clc1cccc(C(CN2CCNCC2)C2CCCCC2)c1 (centres unmarked) [Example 230, 1-[2-(3-chlorophenyl)-2-cyclohexylethyl]piperazine dihydrochloride]	88.3
CN1CCN(CC(c2cccc(Cl)c2)C2CCCCC2)CC1 (centres unmarked) [Example 231, 1-[2-(3-chlorophenyl)-2-cyclohexylethyl]-4-methylpiperazine dihydrochloride]	91.2
Clc1cccc(C(CN2CCNCC2)C2CCCCCC2)c1 (centres unmarked) [Example 234, 1-[2-(3-chlorophenyl)-2-cycloheptylethyl]piperazine dihydrochloride]	67.7
CN1CCN(CC(c2cccc(Cl)c2)C2CCCCCC2)CC1 (centres unmarked) [Example 235, 1-[2-(3-chlorophenyl)-2-cycloheptylethyl]-4-methylpiperazine dihydrochloride]	80.5
OC1CCCCC1C(CN1CCNCC1)c1cccc(Cl)c1 (centres unmarked) [Example 238, 2-[1-(3-chlorophenyl)-2-piperazin-1-ylethyl]cyclohexanol dihydrochloride]	72.9
CC(C)(O)C(CN1CCNCC1)c1cccc(Cl)c1 (centres unmarked) [Example 275, 3-(3-chlorophenyl)-2-methyl-4-piperazin-1-ylbutan-2-ol dihydrochloride]	31
CN1CCN(CC(c2cccc(Cl)c2)C(C)(C)O)CC1 (centres unmarked) [Example 276, 3-(3-chlorophenyl)-2-methyl-4-(4-methylpiperazin-1-yl)butan-2-ol dihydrochloride]	4
CC1(C)CC(C)(C)CC(O)(C(CN2CCNCC2)c2cccc(Cl)c2)C1 (centres unmarked) [Example 277, 1-[1-(3-chlorophenyl)-2-piperazin-1-ylethyl]-3,3,5,5-tetramethylcyclohexanol dihydrochloride]	17
CN1CCN(CC(c2cccc(Cl)c2)C2(O)CC(C)(C)CC(C)(C)C2)CC1 (centres unmarked) [Example 278, 1-[1-(3-chlorophenyl)-2-(4-methylpiperazin-1-yl)ethyl]-3,3,5,5-tetramethylcyclohexanol dihydrochloride]	25

Same assay, conditions: at 10 μM test compound, [3H]NE uptake

SMILES	inhibition at 10 µM [%]
OC1(C(CN2CCNCC2)c2cccc3ccccc23)CCC2CCCCC2C1 (centres unmarked) [Example 329, 2-[1-(1-naphthyl)-2-piperazin-1-ylethyl]decahydronaphthalen-2-ol dihydrochloride]	20.9
CN1CCN(CC(c2cccc(Cl)c2)C2(O)CCCC3CCCCC32)CC1 (centres unmarked) [Example 331, 1-[1-(3-chlorophenyl)-2-(4-methylpiperazin-1-yl)ethyl]decahydronaphthalen-1-ol dihydrochloride]	11.4
